Usually IC50 stands for the concentration that inhibits the measured activity by half. The term inhibition denotes the relative decrease from the control value, in per cent.

We go through one compound from patent publication US10213451B2, “Methods and compounds for modulating the secretion or expression of adhesion proteins or angiopoietins of cells” (PACIFIC ARROW LIMITED, priority 2004, dated 2019).

Data set [1] concerns human ovarian cancer cell lines. As to the kind of experiment: MTT assay, additional human ovarian cancer cell lines. The class given is cell-based. The conditions noted are these: 10 additional human ovarian cancer cell lines. Here is the method: Majority of ovarian cancers arise from the surface epithelium of ovary, most of them belong to the histological subtypes of clear cell and serous carcinoma. We obtained 10 more human ovarian carcinoma cell-lines of these histological subtypes for these studies. The inhibition activity exerted by Xanifolia-Y was determined with MTT assay.
On the technique in general: Formazan colour is commonly taken as a measure of viable cells.

Data set [2] concerns ES2 (human ovarian cancer) cells transplanted intra-peritoneally. Description: Animal study, survival of mice with intra-peritoneal ES2 tumor. The class given is in vivo, Athymic Nu/Nu mice. The conditions noted are these: for survival of tumor bearing mice: 2.5 mg/kg; for median survival time: i.p. 2.5 mg/kg. The procedure:
Methods • Athymic Nu/Nu mice are divided into three groups (A, B and C) with four animals in each group. • On day 0, mice of group A and B were transplanted intra-peritoneally with ES2 (human ovarian cancer) cells. • On day 1, mice from B and C groups received drug (Xanifolia-Y, by i.p. route at dose of 5 mg/kg) • On days 2 to 4, and 7 to 11, B and C groups animals received daily drug administration of Xanifolia-Y, by i.p. route at dose of 2.5 mg/kg. • Group A mice have no drug-treatment.
Methods • Athymic Nu/Nu mice were divided into three groups (A, D and E) with four animals in each group. • On day 0, all mice were transplanted intra-peritoneally with ES2 (human ovarian cancer) cells. • Group A mice received no drug-treatment. • Group D: From day 4, mice received a daily drug administration of Xanifolia-Y, via i.p. route for 9 days at dose of 2.5 mg/kg. • Group E: From day 10, mice received daily drug administration of Xanifolia-Y, via i.p. route for 10 days at dose of 2.5 mg/kg. […]

Data set [3] has as its system Fibronectin secretion from Hey8A (human ovarian carcinoma cells). As to the kind of experiment: Fibronectin secretion (Western blot), Hey8A cells. The class given is cell-based. The following applies: 10 ug/ml, 24 hours. The procedure:
Inhibition of Fibronectin secretion is physiological and the determination of its quantity is based on the following criteria: • 1. Fibronectin is secreted from viable cells. Only cell with over 85% viable cells after drug-treatment are employed in these experiments. The viable cells were determined by MTT assay. • 2. For comparison, the immuno-band intensity from each samples are normalized with cell mass. The cell mass was determined by the MTT assay and is assigned as a MTT unit for each cell sample.
Cells: Hey8A (human ovarian carcinoma cells) were grew in RPMI 1640 medium to 90% confluent before drug-treatment. Drug-treatment: Cells cultures were replaced with fresh RPMI medium containing either DMSO (as control) [D1]; or Xanifolia-Y (10, 15, or 20 ug/ml) [Y1, Y2 and Y3]. Aliquot of medium was removed as 0 hours sample and no FN was detected at this time. After 24 hours, aliquot of culture medium was taken out for Fibronectin determination (Western blot method). Cell viability at 24 hours was determined by MTT assay. Cultures were replaced with RPMI medium (5 ml) with MTT and incubated for an hour. The formation of formazan was dissolved in DMSO and OD at 570 nm was measured.
Western Blot: Spent culture medium (0.6 ml) was mixed with SDS sample buffer (0.2 ml), boiled for 3 minutes before loading to SDS gel. Samples (60 ul/lane) were applied to a 6% SDS gel and electrophoresis was conducted with 100 volts for 2 hours. Protein was transferred to a nitrocellulose paper electrophoretically (30 min at 100 volts). The Western blot was incubated with the first antibody (mouse anti-FN, specific to human FN, SIGMA F0916) and second antibody (Anti-mouse IgG AP conjugated, Promega S3721). The immunobands were developed with BCIP/NBT color development system (Promega S3771).

Data set [4] deals with Hey8A cells inoculated into peritoneal cavity. Description: Nodule formation in peritoneal cavity, Hey8A. The class given is in vivo, nu/nu mice. The conditions noted are these: 0.25 mg/kg i.p. daily 5 days per week for two-three weeks. An excerpt: (§1) The relationship between the nodule formation and timelines during tumor progression are established. Usually, 4 to 6 nodules are formed during the entire period of tumor progression in this system (Lander Jr., et al., 2005). We start the drug-treatment at times equivalent to 20% and 50% of full tumor progression. At these times, the number of nodule is less and the size (weight) of the nodules is smaller. At the end of the drug-treatment, animals are euthanized and number of tumor nodules is determined and the tumor size (mass) is weighted.
(§2) Animals: 40 nu/nu mice are used per experiment.
(§3) 2 groups of mice (20 each) (i) Drug-treatment start at time equivalent to 20% of full tumor progression (or on 4 days after tumor inoculation) (ii) Drug-treatment starts at time equivalent to 50% of full tumor progression (or on 10 days after tumor inoculation). On the day of starting drug-treatment, half of the animals (10) will be scarified and the number and weight of nodules will measured.
(§4) Drug-Treatments: Animals are administered daily for 5 days per week for two—three weeks. Dose: 0.25 mg/kg, through i.p. route.

Data set [5] relates to ES2 cells inoculated into peritoneal cavity. As to the kind of experiment: Nodule formation in peritoneal cavity, ES2. The class given is in vivo, nu/nu mice. The following applies: ES2, 0.25 mg/kg i.p. daily 5 days per week for two-three weeks.
Source text: as §1, §2, §3, §4

[6] abbreviates: drug-treatment started on day 10 after tumor inoculation.
The mark [7] stands for this setting: drug-treatment starting on day 4 after tumor inoculation.

Structures are written as SMILES. Entries after “also recorded” stand apart in the source; their conditions may differ.

Take `C/C=C(/C)C(=O)O[C@H]1[C@H](OC(=O)/C(C)=C\C)[C@@]2(CO)C(CC1(C)C)C1=CCC3[C@@]4(C)CC[C@H](O[C@@H]5OC(C(=O)O)[C@@H](O)C(O[C@@H]6O[C@@H](CO)C(O)C6O)C5O[C@@H]5OC(CO)[C@H](O)C(O)C5O)C(C)(C)C4CC[C@@]3(C)[C@]1(C)[C@@H](O)[C@H]2O` (stereo partly drawn) [Xanifolia-Y, 3-O-[β-D-galactopyranosyl (1→2)]-α-L-arabinofuranosy (1→3)-β-D-glucuronopyranosyl-21,22-O-diangeloyl-3β, 15α, 16α, 21β, 22α, 28-hexahydroxyolean-12-ene]: the IC50 lay in the range of 2 to 12 µM in data set [1] and 2 to 10 µM in data set [1] (Homo sapiens). Moreover, the “survival of mice without tumor given drug” value in data set [2] (Group C: no tumor, i.p. 5 mg/kg day 1, 2.5 mg/kg days 2-4 and 7-11) is reported as “over 50 days”. Further, the “survival of tumor bearing mice” value in data set [2] (Group D: i.p. 2.5 mg/kg daily, 9 times from day 4) was “all survived; also recorded: no death in 50 days”; in data set [2] (Group E: i.p. 2.5 mg/kg daily, 10 times from day 10), “half the number of mice survived; also recorded: half of the mice survive in 50 days”. Besides, the “extension of life span” value in data set [2] (setting [6]) is reported as 29%; in data set [2] (setting [7]) it was 141%. Further, the median survival time in data set [2] (setting [6]) came to 31 days; in data set [2] (setting [7]), 58 days. The “Fibronectin secreted as compared with the DMSO control” value in data set [3] turned out to be 31%. The “average band intensity after corrected with the MTT unit” value in data set [3] was found to be 366. The inhibition at 10 µg/mL in data set [3] (Homo sapiens, Ovarian carcinoma cell) was determined as 69%. Further, the “numbers of tumor nodules” value in data set [4] and in data set [5] was “less” in each case. Further, the size of tumor entry in data set [4] and in data set [5] was “smaller” each time.
